From ChEMBL document CHEMBL3351580, “Pyrano-isochromanones as IL-6 inhibitors: synthesis, in vitro and in vivo antiarthritic activity” (J Med Chem, 2014)

Experiments:
Mus musculus [1] = experiment: Antiarthritic activity in BALB/c mouse assessed as reduction in SRBC-induced blood IL2 level administered orally once daily for 14 days measured 4 hrs post last dose by ELISA method; assay type: functional, organism-based
Cytochrome P450 1A2 = molecular target: T1, Cytochrome P450 1A2 (Homo sapiens, UniProt P05177); experiment: Activation of CYP1A2 (unknown origin) assessed as increase in enzyme activity at 10 uM; assay type: ADME
T1 sequence (P05177 whole entry): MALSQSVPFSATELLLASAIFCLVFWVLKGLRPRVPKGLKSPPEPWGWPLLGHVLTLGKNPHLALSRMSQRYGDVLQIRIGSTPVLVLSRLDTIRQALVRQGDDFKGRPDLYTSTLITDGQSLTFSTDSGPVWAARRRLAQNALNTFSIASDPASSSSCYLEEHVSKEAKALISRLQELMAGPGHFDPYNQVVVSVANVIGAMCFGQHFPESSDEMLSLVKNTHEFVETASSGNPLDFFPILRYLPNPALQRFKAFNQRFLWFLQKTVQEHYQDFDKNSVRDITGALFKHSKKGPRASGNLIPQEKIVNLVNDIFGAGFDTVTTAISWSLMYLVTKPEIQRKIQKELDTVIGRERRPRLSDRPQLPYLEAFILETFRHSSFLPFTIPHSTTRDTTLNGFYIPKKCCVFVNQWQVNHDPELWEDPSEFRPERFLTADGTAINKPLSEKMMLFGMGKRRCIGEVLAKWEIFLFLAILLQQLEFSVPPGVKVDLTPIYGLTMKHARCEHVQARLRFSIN

Mus musculus [2] = experiment: Antiinflammatory activity in BALB/c mouse assessed as serum nitric oxide level at 10 mg/kg, po qd for 5 days followed by LPS challenge 1 hr after last compound dose on fifth day and measured 4 hrs post LPS challenge by Griess assay (reference value: 6.95 +/- 1.81 uM); assay type: functional
[3] = Solubility in PBS buffer; assay type: physicochemical
Mus musculus [4] = experiment: Antiinflammatory activity in BALB/c mouse assessed as serum TNFalpha level at 100 mg/kg, po qd for 5 days followed by LPS challenge 1 hr after last compound dose on fifth day and measured 4 hrs post LPS challenge by ELISA method (reference value: 717 +/- 218 pg/mL); assay type: functional

CCN(CC)Cc1c(O)c(OC)c(O)c2c1C(=O)O[C@@H]1[C@@H](O)[C@H](O)[C@@H](CO)O[C@@H]21
inhibition (Mus musculus [1]): Dose-dependent effect
Activity (Cytochrome P450 1A2): 10%
Activity (Mus musculus [2]): 5 µM
solubility [3]: > 1500 µg/mL
Activity (Mus musculus [4]): 388 pg/mL
